Earlier results as cited in patent US20070243563A1, “Aflatoxin-albumin adduct measurement and the uses thereof” (priority 2000, published 2007).

What was measured:
rats = details: rat, in vivo

Aflatoxin B1 [AFB1]
TD50 (rats): 9.3×10^−4 mg/kg per day | carcinogenic potency relative to benzo(a)pyrene (rats): 1000 times | IARC carcinogen classification (humans): Group 1 carcinogens
